What was measured:
Conditions in all cases: in vivo
Rattus norvegicus [1] = assay: Biodistribution in albino Wistar Hannover rat adipose tissue at 5 mg/kg, iv after 24 hrs by autoradiography analysis; type: ADME, organism-based; parameters: dose 5 mg/kg, route intravenous
Rattus norvegicus [2] = assay: Biodistribution in albino Wistar Hannover rat testis at 5 mg/kg, iv after 24 hrs by autoradiography analysis; type: ADME, organism-based; parameters: dose 5 mg/kg, route intravenous
Rattus norvegicus [3] = assay: Biodistribution in albino Wistar Hannover rat adrenal cortex at 5 mg/kg, iv after 24 hrs by autoradiography analysis; type: ADME, organism-based; parameters: dose 5 mg/kg, route intravenous
Pituitary gland [4] = assay: Biodistribution in albino Wistar Hannover rat pituitary at 5 mg/kg, iv after 24 hrs by autoradiography analysis; type: ADME, organism-based; parameters: dose 5 mg/kg, route intravenous
Thymus [5] = assay: Biodistribution in albino Wistar Hannover rat thymus at 5 mg/kg, iv after 24 hrs by autoradiography analysis; type: ADME, organism-based; parameters: dose 5 mg/kg, route intravenous
Plasma = assay: Biodistribution in albino Wistar Hannover rat plasma at 5 mg/kg, iv after 24 hrs by liquid scintillation counting; type: ADME, organism-based; parameters: dose 5 mg/kg, route intravenous
Harderian gland [6] = assay: Biodistribution in albino Wistar Hannover rat harderian gland at 5 mg/kg, iv after 24 hrs by autoradiography analysis; type: ADME, organism-based; parameters: dose 5 mg/kg, route intravenous
Zone of skin [7] = assay: Biodistribution in albino Wistar Hannover rat skin at 5 mg/kg, iv after 24 hrs by autoradiography analysis; type: ADME, organism-based; parameters: dose 5 mg/kg, route intravenous
Liver [8] = assay: Half life in albino Wistar Hannover rat liver at 5 mg/kg, iv by autoradiography analysis; type: ADME, organism-based; parameters: dose 5 mg/kg, route intravenous
Brain [9] = assay: Half life in albino Wistar Hannover rat brain at 5 mg/kg, iv by autoradiography analysis; type: ADME, organism-based; parameters: dose 5 mg/kg, route intravenous
[10] = Retention time in albino Wistar Hannover rat at 5 mg/kg, iv; type: ADME, organism-based; parameters: dose 5 mg/kg, route intravenous
Lung = assay: Drug uptake in albino Wistar Hannover rat lung at 5 mg/kg, iv by LESA-MS analysis; type: ADME, organism-based; parameters: dose 5 mg/kg, route intravenous
Brain [11] = assay: Biodistribution in albino Wistar Hannover rat brain at 5 mg/kg, iv after 4 hrs by autoradiography analysis; type: ADME, organism-based; parameters: dose 5 mg/kg, route intravenous
Zone of skin [12] = assay: Biodistribution in albino Wistar Hannover rat skin at 5 mg/kg, iv after 4 hrs by autoradiography analysis; type: ADME, organism-based; parameters: dose 5 mg/kg, route intravenous
Rattus norvegicus [13] = assay: Biodistribution in albino Wistar Hannover rat muscle cranial at 5 mg/kg, iv after 24 hrs by autoradiography analysis; type: ADME, organism-based, Muscle tissue; parameters: dose 5 mg/kg, route intravenous
Rattus norvegicus [14] = assay: Biodistribution in albino Wistar Hannover rat tongue at 5 mg/kg, iv after 24 hrs by autoradiography analysis; type: ADME, organism-based; parameters: dose 5 mg/kg, route intravenous
Rattus norvegicus [15] = assay: Biodistribution in albino Wistar Hannover rat salivary gland at 5 mg/kg, iv after 24 hrs by autoradiography analysis; type: ADME, organism-based; parameters: dose 5 mg/kg, route intravenous
[16] = Drug uptake in albino Wistar Hannover rat harder's gland at 5 mg/kg, iv by LESA-MS analysis; type: ADME, organism-based, Harderian gland; parameters: dose 5 mg/kg, route intravenous
Pituitary gland [17] = assay: Drug uptake in albino Wistar Hannover rat pituitary at 5 mg/kg, iv by LESA-MS analysis; type: ADME, organism-based; parameters: dose 5 mg/kg, route intravenous
Kidney = assay: Drug uptake in albino Wistar Hannover rat outer medulla of kidney at 5 mg/kg, iv by LESA-MS analysis; type: ADME, organism-based; parameters: dose 5 mg/kg, route intravenous
[18] = Drug uptake in albino Wistar Hannover rat white fat at 5 mg/kg, iv by LESA-MS analysis; type: ADME, organism-based, White adipose tissue; parameters: dose 5 mg/kg, route intravenous
[19] = Drug uptake in albino Wistar Hannover rat myocardium at 5 mg/kg, iv by LESA-MS analysis; type: ADME, organism-based; parameters: dose 5 mg/kg, route intravenous
Liver [20] = assay: Drug uptake in albino Wistar Hannover rat liver at 5 mg/kg, iv by LESA-MS analysis; type: ADME, organism-based; parameters: dose 5 mg/kg, route intravenous
Stomach = assay: Drug uptake in albino Wistar Hannover rat stomach at 5 mg/kg, iv by LESA-MS analysis; type: ADME, organism-based; parameters: dose 5 mg/kg, route intravenous
Rattus norvegicus [21] = assay: Biodistribution in albino Wistar Hannover rat tongue at 5 mg/kg, iv after 5 mins by autoradiography analysis; type: ADME, organism-based; parameters: dose 5 mg/kg, route intravenous
Pancreas [22] = assay: Biodistribution in albino Wistar Hannover rat pancreas at 5 mg/kg, iv after 5 mins by autoradiography analysis; type: ADME, organism-based; parameters: dose 5 mg/kg, route intravenous
Rattus norvegicus [23] = assay: Biodistribution in albino Wistar Hannover rat adipose tissue at 5 mg/kg, iv after 5 mins by autoradiography analysis; type: ADME, organism-based; parameters: dose 5 mg/kg, route intravenous
Rattus norvegicus [24] = assay: Biodistribution in albino Wistar Hannover rat epididymis at 5 mg/kg, iv after 5 mins by autoradiography analysis; type: ADME, organism-based; parameters: dose 5 mg/kg, route intravenous
Rattus norvegicus [25] = assay: Biodistribution in albino Wistar Hannover rat myocardium at 5 mg/kg, iv after 5 mins by autoradiography analysis; type: ADME, organism-based; parameters: dose 5 mg/kg, route intravenous
Thymus [26] = assay: Biodistribution in albino Wistar Hannover rat thymus at 5 mg/kg, iv after 5 mins by autoradiography analysis; type: ADME, organism-based; parameters: dose 5 mg/kg, route intravenous
Blood = assay: Biodistribution in albino Wistar Hannover rat whole blood at 5 mg/kg, iv after 5 mins by liquid scintillation counting; type: ADME, organism-based; parameters: dose 5 mg/kg, route intravenous
Brain [27] = assay: Biodistribution in albino Wistar Hannover rat brain at 5 mg/kg, iv after 5 mins by autoradiography analysis; type: ADME, organism-based; parameters: dose 5 mg/kg, route intravenous
Harderian gland [28] = assay: Biodistribution in albino Wistar Hannover rat harderian gland at 5 mg/kg, iv after 5 mins by autoradiography analysis; type: ADME, organism-based; parameters: dose 5 mg/kg, route intravenous
Zone of skin [29] = assay: Biodistribution in albino Wistar Hannover rat skin at 5 mg/kg, iv after 5 mins by autoradiography analysis; type: ADME, organism-based; parameters: dose 5 mg/kg, route intravenous
Rattus norvegicus [30] = assay: Biodistribution in albino Wistar Hannover rat muscle cranial at 5 mg/kg, iv after 4 hrs by autoradiography analysis; type: ADME, organism-based, Muscle tissue; parameters: dose 5 mg/kg, route intravenous
Rattus norvegicus [31] = assay: Biodistribution in albino Wistar Hannover rat tongue at 5 mg/kg, iv after 4 hrs by autoradiography analysis; type: ADME, organism-based; parameters: dose 5 mg/kg, route intravenous
Pancreas [32] = assay: Biodistribution in albino Wistar Hannover rat pancreas at 5 mg/kg, iv after 4 hrs by autoradiography analysis; type: ADME, organism-based; parameters: dose 5 mg/kg, route intravenous
Rattus norvegicus [33] = assay: Biodistribution in albino Wistar Hannover rat renal cortex at 5 mg/kg, iv after 4 hrs by autoradiography analysis; type: ADME, organism-based; parameters: dose 5 mg/kg, route intravenous
Pituitary gland [34] = assay: Biodistribution in albino Wistar Hannover rat pituitary at 5 mg/kg, iv after 4 hrs by autoradiography analysis; type: ADME, organism-based; parameters: dose 5 mg/kg, route intravenous
Rattus norvegicus [35] = assay: Biodistribution in albino Wistar Hannover rat myocardium at 5 mg/kg, iv after 4 hrs by autoradiography analysis; type: ADME, organism-based; parameters: dose 5 mg/kg, route intravenous
Thymus [36] = assay: Biodistribution in albino Wistar Hannover rat thymus at 5 mg/kg, iv after 4 hrs by autoradiography analysis; type: ADME, organism-based; parameters: dose 5 mg/kg, route intravenous
Liver [37] = assay: Drug uptake in albino Wistar Hannover rat liver at 5 mg/kg, iv

CN(CCc1cc(C(F)(F)F)cc(C(F)(F)F)c1)C(=O)[C@H](c1ccccc1)N1CCN(CC2CC2)CC1.Cl.O
Drug uptake (Rattus norvegicus [1]): 113 ngequiv/g
Drug uptake (Rattus norvegicus [2]): 633 ngequiv/g
Drug uptake (Rattus norvegicus [3]): 3447 ngequiv/g
Drug uptake (Pituitary gland [4]): 2350 ngequiv/g
Drug uptake (Thymus [5]): 1746 ngequiv/g
Drug uptake (Plasma): 80 ngequiv/g
Drug uptake (Harderian gland [6]): 6246 ngequiv/g
Drug uptake (Zone of skin [7]): 606 ngequiv/g
t1/2 (Liver [8]): 31.2 h
t1/2 (Brain [9]): 32.7 h
Retention time [10]: 0.358 h
Drug uptake (Lung): 38.9%
Drug uptake (Brain [11]): 122 ngequiv/g
Drug uptake (Zone of skin [12]): 1997 ngequiv/g
Drug uptake (Rattus norvegicus [13]): 671 ngequiv/g
Drug uptake (Rattus norvegicus [14]): 891 ngequiv/g
Drug uptake (Rattus norvegicus [15]): 1877 ngequiv/g
Drug uptake [16]: 79.9%
Drug uptake (Pituitary gland [17]): 47.8%
Drug uptake (Kidney): 20.8%
Drug uptake [18]: 100%
Drug uptake [19]: 22.6%
Drug uptake (Liver [20]): 12.9%
Drug uptake (Stomach): 34.6%
Drug uptake (Rattus norvegicus [21]): 12885 ngequiv/g
Drug uptake (Pancreas [22]): 17869 ngequiv/g
Drug uptake (Rattus norvegicus [23]): 467 ngequiv/g
Drug uptake (Rattus norvegicus [24]): 1728 ngequiv/g
Drug uptake (Rattus norvegicus [25]): 13504 ngequiv/g
Drug uptake (Thymus [26]): 3243 ngequiv/g
Drug uptake (Blood): 830 ngequiv/g
Drug uptake (Brain [27]): 1912 ngequiv/g
Drug uptake (Harderian gland [28]): 4132 ngequiv/g
Drug uptake (Zone of skin [29]): 1743 ngequiv/g
Drug uptake (Rattus norvegicus [30]): 2972 ngequiv/g
Drug uptake (Rattus norvegicus [31]): 3786 ngequiv/g
Drug uptake (Pancreas [32]): 12820 ngequiv/g
Drug uptake (Rattus norvegicus [33]): 8020 ngequiv/g
Drug uptake (Pituitary gland [34]): 7747 ngequiv/g
Drug uptake (Rattus norvegicus [35]): 4240 ngequiv/g
Drug uptake (Thymus [36]): 3372 ngequiv/g
Drug uptake (Liver [37]): 12.9%

Reference: ChEMBL document CHEMBL3525916, “Investigation of figopitant and its metabolites in rat tissue by combining whole-body autoradiography with liquid extraction surface analysis mass spectrometry” (Drug Metab Dispos, 2012)
